Data: US10918645B2 (LIFEARC, priority 2016, dated 2021)

What was measured:
Assay type in all cases: biochemical
Settings in all cases: 1 μM inhibitor concentration
p38aMAPK = p38aMAPK (Homo sapiens (Human), UniProt Q16539); test: p38aMAPK kinase selectivity assay
Protocol: (§1) SAPK 2a/p38 (5-20 mU diluted in 50 mM Tris pH 7.5, 0.1 mM EGTA, 0.1 mM Na3VO4, 0.1% b-mercaptoethanol, 1 mg/ml BSA) is assayed against MBP in a final volume of 25.5 μl containing 25 mM Tris pH 7.5, 0.1 mM EGTA, 0.33 mg/ml MBP, 10 mM magnesium acetate and 0.05 mM [33P-g-ATP] (50-1000 cpm/pmole) and incubated for 30 min at room temperature. Assays are stopped by addition of 5 μl of 0.5 M (3%) orthophosphoric acid and then harvested onto P81 Unifilter plates with a wash buffer of 50 mM orthophosphoric acid.

SGK1 = SGK1 (Homo sapiens (Human), UniProt O00141); test: SGK1 kinase selectivity assay
SGK1, sequence (O00141 whole entry, species assumed): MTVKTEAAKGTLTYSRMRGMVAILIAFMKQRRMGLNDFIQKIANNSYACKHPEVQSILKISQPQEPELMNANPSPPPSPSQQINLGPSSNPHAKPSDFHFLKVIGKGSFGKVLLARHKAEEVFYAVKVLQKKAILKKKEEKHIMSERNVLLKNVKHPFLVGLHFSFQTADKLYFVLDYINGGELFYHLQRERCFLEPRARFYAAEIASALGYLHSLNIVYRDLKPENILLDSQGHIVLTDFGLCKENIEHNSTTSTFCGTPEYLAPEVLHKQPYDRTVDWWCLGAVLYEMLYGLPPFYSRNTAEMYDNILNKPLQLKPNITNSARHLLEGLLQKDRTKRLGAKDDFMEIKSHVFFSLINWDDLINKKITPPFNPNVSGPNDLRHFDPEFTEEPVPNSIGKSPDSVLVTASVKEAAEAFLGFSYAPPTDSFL
Protocol: (§2) SGK (5-20 mU diluted in 20 mM MOPS pH 7.5, 1 mM EDTA, 0.01% Brij35, 5% glycerol, 0.1% b-mercaptoethanol, 1 mg/ml BSA) is assayed against a modified Crosstide peptide […] in a final volume of 25.5 μl containing 8 mM MOPS pH 7.0, 0.2 mM EDTA, 30 μM substrate peptide, 10 mM magnesium acetate and 0.02 mM [33P-g-ATP] (50-1000 cpm/pmole) and incubated for 30 min at room temperature. Assays are stopped by addition of 5 μl of 0.5 M (3%) orthophosphoric acid and then harvested onto P81 Unifilter plates with a wash buffer of 50 mM orthophosphoric acid.

MSK1 = MSK1 (Homo sapiens (Human), UniProt O75582); test: MSK1 kinase selectivity assay
MSK1, sequence (O75582 whole entry, species assumed): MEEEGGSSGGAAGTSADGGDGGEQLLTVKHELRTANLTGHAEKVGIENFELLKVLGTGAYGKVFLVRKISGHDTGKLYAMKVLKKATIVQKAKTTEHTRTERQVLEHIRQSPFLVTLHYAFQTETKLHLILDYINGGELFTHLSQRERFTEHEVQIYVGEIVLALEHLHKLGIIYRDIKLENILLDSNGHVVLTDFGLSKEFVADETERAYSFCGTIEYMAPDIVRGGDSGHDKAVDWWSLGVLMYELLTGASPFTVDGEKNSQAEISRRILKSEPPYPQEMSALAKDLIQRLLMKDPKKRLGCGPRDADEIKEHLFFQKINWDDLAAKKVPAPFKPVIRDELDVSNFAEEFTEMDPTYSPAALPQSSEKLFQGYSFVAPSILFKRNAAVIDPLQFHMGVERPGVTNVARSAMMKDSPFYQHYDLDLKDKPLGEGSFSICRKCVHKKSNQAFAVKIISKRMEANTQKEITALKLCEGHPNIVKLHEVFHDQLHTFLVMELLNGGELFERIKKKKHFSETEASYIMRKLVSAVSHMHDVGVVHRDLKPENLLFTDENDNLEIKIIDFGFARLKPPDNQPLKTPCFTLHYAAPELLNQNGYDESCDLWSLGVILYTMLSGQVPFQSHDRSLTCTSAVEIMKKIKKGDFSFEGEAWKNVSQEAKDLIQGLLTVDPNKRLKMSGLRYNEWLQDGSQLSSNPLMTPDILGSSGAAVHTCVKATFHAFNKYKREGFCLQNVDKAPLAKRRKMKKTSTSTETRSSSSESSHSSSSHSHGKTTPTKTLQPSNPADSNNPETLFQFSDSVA
Protocol: as §2, with “MSK1” for “SGK”, “Brij35,” for “Brij35, 5% glycerol,”, “pH7.0,” for “pH 7.0,”, “[33P-g-ATP](50-1000” for “[33P-g-ATP] (50-1000”, “temperature” for “temperature.”

MNK1 = MNK1 (Homo sapiens (Human), UniProt Q9BUB5); test: MNK1 kinase selectivity assay
MNK1, sequence (Q9BUB5 whole entry, species assumed): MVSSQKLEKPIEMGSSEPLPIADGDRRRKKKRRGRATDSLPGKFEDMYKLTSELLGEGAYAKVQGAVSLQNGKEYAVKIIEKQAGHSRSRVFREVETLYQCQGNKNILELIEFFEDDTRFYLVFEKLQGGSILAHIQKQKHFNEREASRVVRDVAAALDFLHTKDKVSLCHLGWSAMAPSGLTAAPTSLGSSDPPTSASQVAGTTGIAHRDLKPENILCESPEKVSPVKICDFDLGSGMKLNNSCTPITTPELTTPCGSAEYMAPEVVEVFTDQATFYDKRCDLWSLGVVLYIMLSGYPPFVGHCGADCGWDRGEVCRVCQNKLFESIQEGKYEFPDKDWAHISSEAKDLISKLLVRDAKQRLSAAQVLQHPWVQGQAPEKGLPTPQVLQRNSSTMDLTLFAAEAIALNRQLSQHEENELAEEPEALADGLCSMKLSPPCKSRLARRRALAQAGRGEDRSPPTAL
Protocol: (§3) 5-20 mU of MNK1 (diluted in 50 mM Tris (pH 7.5), 0.1 mM EGTA, 1 mg/ml BSA, 0.1%, b-Mercaptoethanol) is assayed against substrate peptide (eIF4E) in a final volume of 25.5p1 containing 50 mM Tris (pH 7.5), 0.1 mM EGTA, 0.1%, b-Mercaptoethanol, 0.5 mg/ml substrate peptide, 10 mM magnesium acetate and 0.05 mM [33P-g-ATP](500-1000 cpm/pmole) and incubated for 30 mins at room temperature. Assays are stopped by addition of 5p1 of 0.5M (3%) orthophosphoric acid. Assays are harvested onto P81 Unifilter plates using a wash buffer of 50 mM orthophosphoric acid.

MNK2 = MNK2 (Homo sapiens (Human), UniProt Q9HBH9); test: MNK2 kinase selectivity assay
MNK2, sequence (Q9HBH9 whole entry, species assumed): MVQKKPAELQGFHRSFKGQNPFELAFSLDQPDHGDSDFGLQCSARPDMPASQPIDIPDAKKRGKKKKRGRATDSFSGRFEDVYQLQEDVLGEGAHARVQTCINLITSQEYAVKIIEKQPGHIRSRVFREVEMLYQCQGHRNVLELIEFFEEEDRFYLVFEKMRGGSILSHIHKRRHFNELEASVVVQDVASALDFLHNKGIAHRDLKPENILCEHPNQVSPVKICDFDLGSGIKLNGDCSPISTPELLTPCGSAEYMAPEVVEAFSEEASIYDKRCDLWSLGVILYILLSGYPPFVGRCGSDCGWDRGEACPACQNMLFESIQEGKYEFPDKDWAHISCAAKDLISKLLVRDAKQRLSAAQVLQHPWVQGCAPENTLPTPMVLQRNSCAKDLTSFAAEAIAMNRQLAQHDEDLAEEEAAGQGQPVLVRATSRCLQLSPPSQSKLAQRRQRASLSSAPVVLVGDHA
Protocol: as §3, with “MNK2” for “MNK1”, “25.5 μl” for “25.5p1”, “5 μl” for “5p1”

CDK2-CyclinA = CDK2-CyclinA (Homo sapiens (Human), UniProt P24941); test: CDK2-CyclinA kinase selectivity assay
Protocol: CDK2/cyclin A (5-20 mU diluted in 50 mM Hepes pH 7.5, 1 mM DTT, 0.02% Brij35, 100 mM NaCl) is assayed against Histone H1 in a final volume of 25.5 μl containing 50 mM Hepes pH7.5, 1 mM DTT, 0.02% Brij35, 100 mM NaCl, Histone H1 (1 mg/ml), 10 mM magnesium acetate and 0.02 mM [33P-g-ATP](500-1000 cpm/pmole) and incubated for 30 min at room temperature. Assays are stopped by addition of 5 μl of 0.5 M (3%) orthophosphoric acid and then harvested onto P81 Unifilter plates with a wash buffer of 50 mM orthophosphoric acid.

IRAK4 = IRAK4 (Homo sapiens (Human), UniProt Q9NWZ3); test: IRAK4 kinase selectivity assay
IRAK4, sequence (Q9NWZ3 whole entry, species assumed): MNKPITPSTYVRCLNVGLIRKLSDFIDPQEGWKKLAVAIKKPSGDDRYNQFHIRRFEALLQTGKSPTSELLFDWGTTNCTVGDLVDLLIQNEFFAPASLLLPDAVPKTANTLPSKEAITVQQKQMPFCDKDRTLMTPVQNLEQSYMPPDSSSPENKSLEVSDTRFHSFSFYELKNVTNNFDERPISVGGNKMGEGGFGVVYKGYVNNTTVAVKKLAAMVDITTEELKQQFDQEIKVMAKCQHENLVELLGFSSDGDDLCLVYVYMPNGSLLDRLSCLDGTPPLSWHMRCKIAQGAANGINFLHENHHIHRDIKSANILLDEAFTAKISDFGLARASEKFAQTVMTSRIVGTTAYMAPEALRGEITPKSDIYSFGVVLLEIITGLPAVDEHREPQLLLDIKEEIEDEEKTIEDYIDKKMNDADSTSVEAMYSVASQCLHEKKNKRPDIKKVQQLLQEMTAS
Protocol: as §1, with “IRAK4 (5-20” for “SAPK 2a/p38 (5-20”, “EGTA,” for “EGTA, 0.1 mM Na3VO4,”, “0.1% 0-mercaptoethanol,” for “0.1% b-mercaptoethanol,”, “containing 50” for “containing 25”, “and 0.02” for “and 0.05”, “mM [33P-γ-ATP]” for “mM [33P-g-ATP]”

TTK = TTK (Homo sapiens (Human), UniProt P33981); test: TTK kinase selectivity assay
TTK, sequence (P33981 whole entry, species assumed): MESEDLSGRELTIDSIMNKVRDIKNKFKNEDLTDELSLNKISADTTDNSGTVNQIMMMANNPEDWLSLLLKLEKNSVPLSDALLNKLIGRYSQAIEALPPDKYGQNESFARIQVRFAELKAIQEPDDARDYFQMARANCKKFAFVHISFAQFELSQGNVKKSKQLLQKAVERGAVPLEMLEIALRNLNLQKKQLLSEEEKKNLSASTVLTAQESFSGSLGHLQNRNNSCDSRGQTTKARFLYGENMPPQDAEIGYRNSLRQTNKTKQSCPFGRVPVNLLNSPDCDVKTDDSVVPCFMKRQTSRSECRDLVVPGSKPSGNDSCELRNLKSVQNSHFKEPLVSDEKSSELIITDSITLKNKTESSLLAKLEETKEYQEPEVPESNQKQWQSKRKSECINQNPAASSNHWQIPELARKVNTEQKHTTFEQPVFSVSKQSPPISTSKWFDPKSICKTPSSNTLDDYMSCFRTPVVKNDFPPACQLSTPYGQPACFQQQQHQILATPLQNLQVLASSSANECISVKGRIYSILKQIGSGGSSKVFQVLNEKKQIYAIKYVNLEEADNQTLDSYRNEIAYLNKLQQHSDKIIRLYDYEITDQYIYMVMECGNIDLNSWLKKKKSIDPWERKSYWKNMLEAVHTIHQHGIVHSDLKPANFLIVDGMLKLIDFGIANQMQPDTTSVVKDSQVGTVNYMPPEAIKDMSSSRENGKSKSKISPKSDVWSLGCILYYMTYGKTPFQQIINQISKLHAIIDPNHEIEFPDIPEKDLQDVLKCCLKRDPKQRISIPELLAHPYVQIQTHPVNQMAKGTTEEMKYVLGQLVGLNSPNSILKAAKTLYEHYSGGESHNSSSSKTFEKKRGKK
Protocol: TTK (5-20 mU diluted in 50 mM Tris pH 7.5, 0.1 mM EGTA, 0.1% 0-mercaptoethanol, 1 mg/ml BSA) is assayed against […] in a final volume of […] containing 50 mM Tris pH 7.5, 0.1 mM EGTA, 0.3 mM […], 10 mM magnesium acetate and 0.02 mM [33P-γ-ATP] (50-1000 cpm/pmole) and incubated for 30 min at room temperature. Assays are stopped by addition of 5 μl of 0.5 M (3%) orthophosphoric acid and then harvested onto P81 Unifilter plates with a wash buffer of 50 mM orthophosphoric acid.

ULK1 = ULK1 (Homo sapiens (Human), UniProt O75385); test: ULK1 kinase selectivity assay
ULK1, sequence (O75385 whole entry, species assumed): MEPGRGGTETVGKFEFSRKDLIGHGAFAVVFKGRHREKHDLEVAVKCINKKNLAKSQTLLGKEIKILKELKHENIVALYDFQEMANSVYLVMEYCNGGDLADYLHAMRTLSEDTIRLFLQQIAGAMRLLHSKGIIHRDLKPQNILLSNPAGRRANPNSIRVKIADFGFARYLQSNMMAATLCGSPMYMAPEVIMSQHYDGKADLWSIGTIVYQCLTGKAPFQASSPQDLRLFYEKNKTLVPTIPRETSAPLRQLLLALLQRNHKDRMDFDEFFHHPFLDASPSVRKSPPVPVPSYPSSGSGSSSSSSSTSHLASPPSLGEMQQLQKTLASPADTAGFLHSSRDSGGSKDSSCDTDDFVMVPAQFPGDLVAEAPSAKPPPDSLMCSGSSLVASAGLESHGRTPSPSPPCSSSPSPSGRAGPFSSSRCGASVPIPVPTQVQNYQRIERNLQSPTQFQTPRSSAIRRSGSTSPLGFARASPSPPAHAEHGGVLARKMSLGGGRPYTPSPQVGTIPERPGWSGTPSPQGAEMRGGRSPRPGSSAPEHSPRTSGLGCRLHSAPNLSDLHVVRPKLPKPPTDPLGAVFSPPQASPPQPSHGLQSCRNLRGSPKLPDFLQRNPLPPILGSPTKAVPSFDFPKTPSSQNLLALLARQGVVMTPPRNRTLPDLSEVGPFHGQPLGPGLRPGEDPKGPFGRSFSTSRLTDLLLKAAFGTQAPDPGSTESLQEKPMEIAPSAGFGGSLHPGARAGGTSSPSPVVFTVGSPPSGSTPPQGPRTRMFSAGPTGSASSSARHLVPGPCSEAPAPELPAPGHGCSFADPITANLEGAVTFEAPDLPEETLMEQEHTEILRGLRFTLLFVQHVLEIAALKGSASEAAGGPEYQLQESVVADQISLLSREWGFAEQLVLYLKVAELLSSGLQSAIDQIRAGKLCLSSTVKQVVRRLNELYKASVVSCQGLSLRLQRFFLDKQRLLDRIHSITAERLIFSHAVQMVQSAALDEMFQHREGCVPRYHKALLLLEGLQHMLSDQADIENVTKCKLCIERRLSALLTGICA

p38aMAPK, sequence (Q16539 whole entry): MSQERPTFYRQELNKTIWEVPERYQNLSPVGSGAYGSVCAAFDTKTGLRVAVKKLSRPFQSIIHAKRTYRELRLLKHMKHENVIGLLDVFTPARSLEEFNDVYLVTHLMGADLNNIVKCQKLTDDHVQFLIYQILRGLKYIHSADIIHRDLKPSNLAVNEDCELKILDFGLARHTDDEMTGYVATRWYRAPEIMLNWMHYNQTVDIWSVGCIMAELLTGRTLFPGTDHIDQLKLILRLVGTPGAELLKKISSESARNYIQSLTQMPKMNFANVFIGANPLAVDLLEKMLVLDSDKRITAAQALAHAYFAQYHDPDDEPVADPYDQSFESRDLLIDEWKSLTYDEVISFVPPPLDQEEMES

| SMILES | percentage inhibition of p38aMAPK (p38aMAPK) [percentage] | percentage inhibition of SGK1 (SGK1) [percentage] | percentage inhibition of MSK1 (MSK1) [percentage] | percentage inhibition of MNK1 (MNK1) [percentage] | percentage inhibition of MNK2 (MNK2) [percentage] | percentage inhibition of CDK2-CyclinA (CDK2-CyclinA) [percentage] | percentage inhibition of IRAK4 (IRAK4) [percentage] | percentage inhibition of TTK (TTK) [percentage] | percentage inhibition of ULK1 (ULK1) [percentage] |
| --- | --- | --- | --- | --- | --- | --- | --- | --- | --- |
| c1cc2[nH]nc3c2c(n1)N(C1CCOCC1)CCC3 [Example 29, 6-(tetrahydro-2H-pyran-4-yl)-6,7,8,9-tetrahydro-2H-1,2,5,6-tetraazabenzo[cd]azulene] | 0 | 18 | 7 | 0 | 0 | 30 | 15 | 2 | 5 |
| CN1CCC(N2Cc3ccccc3-c3n[nH]c4ccnc2c34)CC1 [Example 55] | 6 | 10 | 34 | 50 | 40 | 10 | 9 | 35 | 20 |
| c1cc2[nH]nc3c2c(n1)N(C1CCCC1)CCC3 [Example 23, 6-cyclopentyl-6,7,8,9-tetrahydro-2H-1,2,5,6-tetraazabenzo[cd]azulene] | 0 | 0 | 2 | 0 | 0 | 0 | 0 | 0 | 0 |
| CC(C)n1ncc2c1CN(C1CCN(C)CC1)c1nccc3[nH]nc-2c13 [Example 68] | 0 | 23 | 30 | 1 | 18 | 0 | 14 | 2 | 30 |
| c1cc2[nH]nc3c2c(n1)N(C1CCC1)CCC3 [Example 22, 6-cyclobutyl-6,7,8,9-tetrahydro-2H-1,2,5,6-tetraazabenzo[cd]azulene] | 4 | 13 | 2 | 0 | 0 | 16 | 13 | 0 | 14 |
